The NIST ThermoML archive (doi:10.1021/je700350b)

Assay: xn = mol fraction of the nth substance listed
Conditions: for surface tension liquid-gas: Ring tensiometer; for binary diffusion coefficient: 101 kPa, Taylor dispersion method; for binary diffusion coefficient / viscosity: Liquid; for viscosity: 101.33 kPa

CCN(CC)CCO [(diethylamino)ethanol] + O
Conditions	binary diffusion coefficient [m2/s]	surface tension liquid-gas [mN/m]	viscosity [mPa·s]
283.15 K, x1 = 0.00104	–	62.91	–
283.15 K, x1 = 0.00111	–	62.83	–
283.15 K, x1 = 0.0013	–	62.32	–
283.15 K, x1 = 0.00336	–	55.32	–
283.15 K, x1 = 0.00503	–	54.03	–
283.15 K, x1 = 0.00679	–	50.98	–
283.15 K, x1 = 0.02372	–	43.65	–
283.15 K, x1 = 0.03998	–	39.05	–
283.15 K, x1 = 0.06011	–	37.17	–
283.15 K, x1 = 0.07276	–	36.26	–
283.15 K, x1 = 0.1253	–	34.78	–
283.15 K, x1 = 0.1749	–	33.38	–
283.15 K, x1 = 0.2503	–	32.74	–
283.15 K, x1 = 0.3515	–	31.85	–
283.15 K, x1 = 0.4018	–	31.32	–
283.15 K, x1 = 0.5038	–	31.02	–
283.15 K, x1 = 0.608	–	30.63	–
283.15 K, x1 = 0.712	–	30.36	–
283.15 K, x1 = 0.7503	–	30.08	–
283.15 K, x1 = 0.8542	–	29.69	–
283.15 K, x1 = 1	–	28.79	–
288.15 K, x1 = 0.00104	–	62.06	–
288.15 K, x1 = 0.00111	–	61.98	–
288.15 K, x1 = 0.0013	–	61.47	–
288.15 K, x1 = 0.00336	–	54.27	–
288.15 K, x1 = 0.00503	–	53.11	–
288.15 K, x1 = 0.00679	–	49.93	–
288.15 K, x1 = 0.02372	–	42.61	–
288.15 K, x1 = 0.03998	–	38.43	–
288.15 K, x1 = 0.06011	–	36.56	–
288.15 K, x1 = 0.07276	–	35.84	–
288.15 K, x1 = 0.1253	–	34.38	–
288.15 K, x1 = 0.1749	–	32.58	–
288.15 K, x1 = 0.2503	–	32.22	–
288.15 K, x1 = 0.3515	–	31.24	–
288.15 K, x1 = 0.4018	–	30.72	–
288.15 K, x1 = 0.5038	–	30.62	–
288.15 K, x1 = 0.608	–	30.23	–
288.15 K, x1 = 0.712	–	29.96	–
288.15 K, x1 = 0.7503	–	29.69	–
288.15 K, x1 = 0.8542	–	29.3	–
288.15 K, x1 = 1	–	28.39	–
293.15 K, x1 = 0.00104	–	61.43	–
293.15 K, x1 = 0.00111	–	61.34	–
293.15 K, x1 = 0.0013	–	60.62	–
293.15 K, x1 = 0.00336	–	53.43	–
293.15 K, x1 = 0.00503	–	52.35	–
293.15 K, x1 = 0.00679	–	48.58	–
293.15 K, x1 = 0.02372	–	41.89	–
293.15 K, x1 = 0.03998	–	37.6	–
293.15 K, x1 = 0.06011	–	36	–
293.15 K, x1 = 0.07276	–	35.06	–
293.15 K, x1 = 0.1253	–	33.88	–
293.15 K, x1 = 0.1749	–	32.18	–
293.15 K, x1 = 0.2503	–	31.82	–
293.15 K, x1 = 0.3515	–	30.73	–
293.15 K, x1 = 0.4018	–	30.23	–
293.15 K, x1 = 0.5038	–	30.22	–
293.15 K, x1 = 0.608	–	29.73	–
293.15 K, x1 = 0.712	–	29.66	–
293.15 K, x1 = 0.7503	–	29.29	–
293.15 K, x1 = 0.8542	–	28.8	–
293.15 K, x1 = 1	–	27.99	–
298.15 K, x1 = 0.00104	–	60.8	–
298.15 K, x1 = 0.00111	–	60.7	–
298.15 K, x1 = 0.0013	–	59.88	–
298.15 K, x1 = 0.00336	–	52.59	–
298.15 K, x1 = 0.00427	6.17e-10	–	–
298.15 K, x1 = 0.00503	–	51.41	–
298.15 K, x1 = 0.00679	–	47.43	–
298.15 K, x1 = 0.01005	–	–	1.201
298.15 K, x1 = 0.01425	4.95e-10	–	–
298.15 K, x1 = 0.02016	–	–	1.536
298.15 K, x1 = 0.02372	–	40.85	–
298.15 K, x1 = 0.03	–	–	1.949
298.15 K, x1 = 0.03523	2.95e-10	–	–
298.15 K, x1 = 0.03998	–	36.88	–
298.15 K, x1 = 0.04005	–	–	2.421
298.15 K, x1 = 0.05087	2.23e-10	–	–
298.15 K, x1 = 0.05118	2.22e-10	–	–
298.15 K, x1 = 0.05946	–	–	3.473
298.15 K, x1 = 0.06011	–	35.23	–
298.15 K, x1 = 0.06152	–	–	3.51
298.15 K, x1 = 0.07013	1.58e-10	–	–
298.15 K, x1 = 0.07026	–	–	4.128
298.15 K, x1 = 0.07276	–	34.59	–
298.15 K, x1 = 0.08762	–	–	5.181
298.15 K, x1 = 0.09008	–	–	5.347
298.15 K, x1 = 0.09711	1.32e-10	–	–
298.15 K, x1 = 0.1004	1.26e-10	–	–
298.15 K, x1 = 0.11	–	–	6.615
298.15 K, x1 = 0.12	–	–	7.243
298.15 K, x1 = 0.1253	–	33.18	–
298.15 K, x1 = 0.1301	–	–	7.863
298.15 K, x1 = 0.1401	–	–	8.511
298.15 K, x1 = 0.1467	1.07e-10	–	–
298.15 K, x1 = 0.1483	–	–	8.96
298.15 K, x1 = 0.1603	–	–	9.677
298.15 K, x1 = 0.1704	–	–	10.26
298.15 K, x1 = 0.1749	–	31.58	–
298.15 K, x1 = 0.1905	–	–	11.31
298.15 K, x1 = 0.2004	–	–	11.76
298.15 K, x1 = 0.2104	–	–	12.22
298.15 K, x1 = 0.22	–	–	12.66
298.15 K, x1 = 0.2301	–	–	13.04
298.15 K, x1 = 0.2401	–	–	13.42
298.15 K, x1 = 0.2503	–	31.21	–
298.15 K, x1 = 0.253	–	–	13.84
298.15 K, x1 = 0.2674	–	–	14.24
298.15 K, x1 = 0.2701	–	–	14.25
298.15 K, x1 = 0.2801	–	–	14.55
298.15 K, x1 = 0.29	–	–	14.76
298.15 K, x1 = 0.3022	–	–	14.98
298.15 K, x1 = 0.35	–	–	15.43
298.15 K, x1 = 0.3515	–	30.22	–
298.15 K, x1 = 0.3999	–	–	14.98
298.15 K, x1 = 0.4018	–	29.73	–
298.15 K, x1 = 0.4507	–	–	14.58
298.15 K, x1 = 0.5001	–	–	13.45
298.15 K, x1 = 0.5038	–	29.72	–
298.15 K, x1 = 0.5504	–	–	12.29
298.15 K, x1 = 0.6001	–	–	10.96
298.15 K, x1 = 0.608	–	29.23	–
298.15 K, x1 = 0.6514	–	–	9.672
298.15 K, x1 = 0.7	–	–	8.576
298.15 K, x1 = 0.712	–	29.15	–
298.15 K, x1 = 0.7503	–	28.8	–
298.15 K, x1 = 0.7508	–	–	7.471
298.15 K, x1 = 0.8001	–	–	6.597
298.15 K, x1 = 0.8508	–	–	5.743
298.15 K, x1 = 0.8542	–	28.41	–
298.15 K, x1 = 0.9001	–	–	5.063
298.15 K, x1 = 0.9501	–	–	4.494
298.15 K, x1 = 1	–	27.6	4.01
303.15 K, x1 = 0.00104	–	60.06	–
303.15 K, x1 = 0.00111	–	59.95	–
303.15 K, x1 = 0.0013	–	59.24	–
303.15 K, x1 = 0.00278	7.11e-10	–	–
303.15 K, x1 = 0.00336	–	51.86	–
303.15 K, x1 = 0.00503	–	50.47	–
303.15 K, x1 = 0.00524	6.5e-10	–	–
303.15 K, x1 = 0.00679	–	46.5	–
303.15 K, x1 = 0.00781	6.39e-10	–	–
303.15 K, x1 = 0.01005	–	–	1.062
303.15 K, x1 = 0.01032	5.82e-10	–	–
303.15 K, x1 = 0.01281	5.63e-10	–	–
303.15 K, x1 = 0.01536	5.39e-10	–	–
303.15 K, x1 = 0.01779	4.82e-10	–	–
303.15 K, x1 = 0.02016	–	–	1.333
303.15 K, x1 = 0.02026	4.54e-10	–	–
303.15 K, x1 = 0.02372	–	39.92	–
303.15 K, x1 = 0.02731	4.06e-10	–	–
303.15 K, x1 = 0.0382	3.14e-10	–	–
303.15 K, x1 = 0.03976	–	–	2.025
303.15 K, x1 = 0.03998	–	35.96	–
303.15 K, x1 = 0.05015	–	–	2.464
303.15 K, x1 = 0.05024	2.55e-10	–	–
303.15 K, x1 = 0.06011	–	34.47	–
303.15 K, x1 = 0.06028	–	–	2.899
303.15 K, x1 = 0.07004	–	–	3.354
303.15 K, x1 = 0.07276	–	33.87	–
303.15 K, x1 = 0.07362	1.77e-10	–	–
303.15 K, x1 = 0.08051	–	–	3.86
303.15 K, x1 = 0.08982	–	–	4.289
303.15 K, x1 = 0.09846	1.53e-10	–	–
303.15 K, x1 = 0.11	–	–	5.269
303.15 K, x1 = 0.12	–	–	5.728
303.15 K, x1 = 0.1247	1.37e-10	–	–
303.15 K, x1 = 0.1253	–	32.48	–
303.15 K, x1 = 0.1301	–	–	6.216
303.15 K, x1 = 0.1401	–	–	6.673
303.15 K, x1 = 0.1476	1.29e-10	–	–
303.15 K, x1 = 0.1511	–	–	7.151
303.15 K, x1 = 0.1603	–	–	7.537
303.15 K, x1 = 0.1704	–	–	7.965
303.15 K, x1 = 0.1749	–	30.78	–
303.15 K, x1 = 0.1801	1.32e-10	–	–
303.15 K, x1 = 0.1897	–	–	8.687
303.15 K, x1 = 0.1998	–	–	9.003
303.15 K, x1 = 0.2104	–	–	9.393
303.15 K, x1 = 0.22	–	–	9.709
303.15 K, x1 = 0.2301	–	–	9.979
303.15 K, x1 = 0.2401	–	–	10.26
303.15 K, x1 = 0.2498	–	–	10.48
303.15 K, x1 = 0.2503	–	30.81	–
303.15 K, x1 = 0.2674	–	–	10.84
303.15 K, x1 = 0.2701	–	–	10.86
303.15 K, x1 = 0.2801	–	–	11.05
303.15 K, x1 = 0.29	–	–	11.21
303.15 K, x1 = 0.3003	–	–	11.25
303.15 K, x1 = 0.35	–	–	11.5
303.15 K, x1 = 0.3515	–	29.72	–
303.15 K, x1 = 0.3997	–	–	11.47
303.15 K, x1 = 0.4018	–	29.34	–
303.15 K, x1 = 0.433	–	–	11.12
303.15 K, x1 = 0.4995	–	–	10.24
303.15 K, x1 = 0.5038	–	29.22	–
303.15 K, x1 = 0.5498	–	–	9.382
303.15 K, x1 = 0.5997	–	–	8.485
303.15 K, x1 = 0.608	–	28.83	–
303.15 K, x1 = 0.6499	–	–	7.581
303.15 K, x1 = 0.7001	–	–	6.746
303.15 K, x1 = 0.712	–	28.65	–
303.15 K, x1 = 0.7498	–	–	5.97
303.15 K, x1 = 0.7503	–	28.3	–
303.15 K, x1 = 0.8	–	–	5.299
303.15 K, x1 = 0.8499	–	–	4.701
303.15 K, x1 = 0.8542	–	27.91	–
303.15 K, x1 = 0.9	–	–	4.196
303.15 K, x1 = 0.95	–	–	3.742
303.15 K, x1 = 1	–	27.2	3.375
